Where two headings read alike, the source gives them in different places.
Columns and labels:
5-HT1A human receptors = molecular target: T1, 5-HT1A human receptors (Homo sapiens, UniProt P08908); assay: 5-HT1A radioligand receptor binding assay ([3H]-8-OH-DPAT); conditions: for inhibition at 0.1 µM: compound 10^−7 M, singlicate, [3H]-8-OH-DPAT 0.6-0.7 nM
T1 construct: expressed in transfected cells; host or cells: CHO cells
T1 sequence (P08908 1-422): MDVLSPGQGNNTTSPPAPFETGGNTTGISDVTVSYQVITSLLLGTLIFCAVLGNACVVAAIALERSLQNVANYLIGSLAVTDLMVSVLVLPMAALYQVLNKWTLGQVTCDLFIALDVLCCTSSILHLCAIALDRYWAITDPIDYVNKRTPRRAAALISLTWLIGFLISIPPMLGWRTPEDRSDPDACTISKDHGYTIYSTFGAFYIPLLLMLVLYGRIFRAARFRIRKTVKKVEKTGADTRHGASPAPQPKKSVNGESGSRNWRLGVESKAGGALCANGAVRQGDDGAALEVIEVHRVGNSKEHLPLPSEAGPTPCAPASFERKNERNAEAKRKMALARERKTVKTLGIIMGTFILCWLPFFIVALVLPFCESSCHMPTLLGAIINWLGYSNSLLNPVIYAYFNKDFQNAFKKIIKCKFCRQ
Method: 5-HT1A, Radioligand Receptor Binding Assay
Membranes from CHO cells, expressing 5-HT1A human receptors were suspended in incubation buffer.
Binding assays were performed in MultiProbe 204 pipetting system (Packard), according to a predetermined mapping, consistent with the software Screen. The compounds were tested in singlicate at one concentration (10^−7 M) in a total volume of 1000 μl. 980 μl of diluted membranes, 10 μl DMSO or unlabelled ligand, and 10 μl of [^3H]-8-OH-DPAT (0.6-0.7 nM) were incubated for 60 minutes at 27° C. The reaction was stopped by rapid filtration through Tomtec Cell Harvester (48 wells) using Filtermat B (presoaked in 0.1% PEI) filters. Filters were washed with ice-cold 50 mM Tris-HCl (pH 7.4) buffer (9×700 μl), dried, covered with MeltiLex B/HS scintillator sheets (Wallac) and heated at 80° C. to 90° C. for about 10 minutes, transferred into plastic sample bags (Wallac), sealed and put into 1024 Beta Plate scintillation counter (Wallac). Non-specific binding was determined in the presence of 5-HT (10^−5 M).
The specific radioligand binding to the receptor was defined by the difference between total binding and non-specific binding, determined in the presence of an excess of unlabelled ligand. Results were expressed as percentage of control specific binding obtained in the presence of the compounds. The affinity values (IC50) for the compounds were obtained by a nonlinear least squares regression analysis on the basis of a one binding site model.

D4 human receptors = molecular target: T2, D4 human receptors (Homo sapiens, UniProt P21917); assay: D4 radioligand receptor binding assay ([3H] YM-09151-2); conditions: compound 10^−7 M, singlicate; membranes from CHO cells; [3H] YM-09151-2 0.15-0.25 nM
T2 construct: expressed in transfected cells; host or cells: CHO cells
T2 sequence (P21917 1-419): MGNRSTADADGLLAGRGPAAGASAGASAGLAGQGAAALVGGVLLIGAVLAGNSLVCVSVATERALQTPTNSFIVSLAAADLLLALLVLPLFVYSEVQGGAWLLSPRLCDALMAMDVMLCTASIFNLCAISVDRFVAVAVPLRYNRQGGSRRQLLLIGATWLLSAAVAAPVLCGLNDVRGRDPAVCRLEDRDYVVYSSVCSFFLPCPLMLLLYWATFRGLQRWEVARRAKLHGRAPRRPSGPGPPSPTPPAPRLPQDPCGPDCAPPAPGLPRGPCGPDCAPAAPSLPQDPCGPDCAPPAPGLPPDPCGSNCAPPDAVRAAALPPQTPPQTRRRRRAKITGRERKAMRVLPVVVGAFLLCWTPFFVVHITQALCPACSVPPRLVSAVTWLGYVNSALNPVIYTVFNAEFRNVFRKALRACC
Method: D4 Radioligand Receptor Binding Assay
Membranes from CHO cells, expressing D4 human receptors were suspended in incubation buffer.
Binding assays were performed in MultiProbe 204 pipetting system (Packard), according to a predetermined mapping, consistent with the software Screen. The compounds were tested in singlicate at one concentration (10^−7 M) in a total volume of 1000 μl (980 μl of diluted membranes, 10 μl DMSO or unlabelled ligand, and 10 μl of [^3H] YM-09151-2 (0.15-0.25 nM). After incubation for 120 minutes at 27° C., the reaction was stopped by rapid filtration through Tomtec Cell Harvester (48 wells) using Filtermat B (presoaked in 0.1% PEI) filters. Filters were washed with ice-cold 50 mM Tris-HCl (pH 7.4) buffer (9×700 μl), dried, covered with MeltiLex B/HS (Wallac) scintillator sheets and heated in oven at 80° C.-90° C. for about 10 minutes, transferred into plastic sample bags (Wallac), sealed and put into 1024 Beta Plate scintillation counter (Wallac). Non-specific binding was determined in the presence of clozapine dissolved in DMSO to a final concentration of 10^−5 M.
The specific radioligand binding to the receptor was defined by the difference between total binding and non-specific binding, determined in the presence of an excess of unlabelled ligand. Results were expressed as percentage of control specific binding obtained in the presence of the compounds.

[1] = molecular target: T3, 5-HT1A receptor (CHO/5-HT1A cells) (Homo sapiens, UniProt P08908); assay: 5-HT1A functional assay (cAMP); assay type: cell-based; conditions: 10 μM compound, % inhibition of the cAMP accumulation induced by 10 μM FSK, read-out: 5-HT1A cAMP % Inhibition (agonist activity)
T3 construct: expressed in transfected cells; host or cells: CHO/5-HT1A cells
T3 sequence (P08908 1-422): T1 sequence (P08908 1-422)
Method: 5-HT1A Functional Assay (cAMP)
CHO/5-HT1A cells were random seeded at a density of about 200,000/well in 24 well plates the day prior to the experiment. On the day of the experiment, cells were pretreated for 15 minutes at 37° C. with 500 μM isobutylmethylxantine (IBMX) dissolved in culture medium without serum. Wells were then divided in different groups in duplicate as follows: control, 10 μM FSK, 10 μM FSK+1 μM 5-HT as positive standard and 10 μM FSK+10 μM of the different compound under evaluation. Sample solutions were added and incubated for additional 15 minutes at 37° C. After incubation, medium was aspirated and the reaction stopped by adding 200 μl of lysis buffer. Plates were shaken for 5 minutes, then the lysate was removed and samples were stored at 4° C. until the day of the assay. For the cAMP evaluation, samples were properly diluted and the cAMP content was measured by an enzyme immunoassay system.
Results are expressed as % inhibition of the cAMP accumulation induced by 10 μM FSK.

[2] = membranes from CHO cells, [3H]-8-OH-DPAT, one binding site model, read-out: 5-HT1A Receptor Binding IC50

Structure (SMILES) | inhibition at 0.1 µM (5-HT1A human receptors; membranes from CHO cells) [%] | IC50 (5-HT1A human receptors; [2]) [nM] | inhibition at 0.1 µM (D4 human receptors) [%] | inhibition at 10 µM [1] [%] | IC50 (5-HT1A human receptors) [nM]
Cn1c(=O)n(C/C=C/CN2CCN(c3cccc(Cl)c3)CC2)c2ccccc21 [Compound 90] | 98 | 4.6 | 79 | 62 | 
Cn1c(=O)n(C/C=C\CN2CCN(c3cccc(C(F)(F)F)c3)CC2)c2ccccc21 [Compound 43] | 94 | 1.2 | 54 | 73 | 
CCCn1c(=O)n(C/C=C\CN2CCN(c3cccc(C(F)(F)F)c3)CC2)c2ccccc21 [Compound 60] | 88 | 1.8 | 30 | 71 | 
O=c1n(C/C=C\CN2CCN(c3ccccc3)CC2)c2ccccc2n1CC1CCCCC1 [Compound 69] | 90 | 13 | 41 | 52 | 
CCCn1c(=O)n(C/C=C\CN2CCN(c3cccc(Cl)c3)CC2)c2ccccc21 [Compound 56] | 92 | 11 | 65 | 65 | 
Cn1c(=O)n(C/C=C/CN2CCN(c3cccc(C(F)(F)F)c3)CC2)c2ccccc21 [Compound 94] |  | 0.96 |  | 75 | 
O=c1n(C/C=C/CN2CCN(c3ccccn3)CC2)c2ccccc2n1CC1CCCCC1 [Compound 123] | 98 | 1.2 | 57 | 63 | 
O=c1n(C/C=C/CN2CCN(c3ncccn3)CC2)c2ccccc2n1CC1CCCCC1 [Compound 125] | 90 | 3.3 | 51 | 49 | 
O=c1n(C/C=C\CN2CC=C(c3ccccc3)CC2)c2ccccc2n1CC1CCCCC1 [Compound 78] | 86 |  | 40 | 27 | 18
O=c1n(C/C=C/CN2CCN(c3cccc(Cl)c3)CC2)c2ccccc2n1CC1CCCCC1 [Compound 124] | 99 | 11 | 49 | 47 | 
O=c1n(C/C=C/CN2CCN(c3cccc(C(F)(F)F)c3)CC2)c2ccccc2n1CC1CCCCC1 [Compound 128] |  | 8.4 |  | 61 | 
Cn1c(=O)n(C/C=C\CN2CCN(c3ccccc3)CC2)c2ccccc21 [Compound 35] | 88 | 15 | 59 | 66 | 
Cn1c(=O)n(C/C=C/CN2CCN(c3ccccn3)CC2)c2ccccc21 [Compound 89] | 92 | 10 | 34 | 66 | 
Cn1c(=O)n(C/C=C\CN2CC=C(c3ccccc3)CC2)c2ccccc21 [Compound 44] | 94 |  | 69 | 47 | 2.5
Cn1c(=O)n(C/C=C/CN2CCc3c([nH]c4ccccc34)C2)c2ccccc21 [Compound 92] | 88 | 15 | 54 | 46 | 
O=c1[nH]c2ccccc2n1C/C=C\CN1CCN(c2cccc(C(F)(F)F)c2)CC1 [Compound 26] | 94 |  | 49 | 68 | 6.6
O=c1n(C/C=C/CN2CCN(c3ccccc3)CC2)c2ccccc2n1CC1CCCCC1 [Compound 120] | 98 | 6 | 49 | 17 | 
CCCn1c(=O)n(C/C=C\CN2CC=C(c3ccccc3)CC2)c2ccccc21 [Compound 61] | 90 |  | 44 | 26 | 5.2
CCCn1c(=O)n(C/C=C/CN2CCN(c3cccc(C(F)(F)F)c3)CC2)c2ccccc21 [Compound 111] | 94 | 4.4 | 32 | 68 | 
O=c1[nH]c2ccccc2n1C/C=C\CN1CC=C(c2ccccc2)CC1 [Compound 27] | 87 |  | 70 | 44 | 6.4
CCCn1c(=O)n(C/C=C/CN2CCN(c3ccccn3)CC2)c2ccccc21 [Compound 106] | 92 | 7.4 | 37 | 68 | 
Cn1c(=O)n(C/C=C/CN2CC=C(c3ccccc3)CC2)c2ccccc21 [Compound 95] | 92 |  | 46 | 22 | 7.3
CCCn1c(=O)n(C/C=C\CN2CCN(c3ccccc3)CC2)c2ccccc21 [Compound 52] | 90 | 16 | 47 | 54 | 
O=c1n(C/C=C/CN2CCc3c([nH]c4ccccc34)C2)c2ccccc2n1CC1CCCCC1 [Compound 126] |  | 15 |  | 44 | 
CCCn1c(=O)n(C/C=C/CN2CCN(c3cccc(Cl)c3)CC2)c2ccccc21 [Compound 107] | 96 | 5.3 | 69 | 54 | 
O=c1[nH]c2ccccc2n1C/C=C/CN1CCN(c2cccc(C(F)(F)F)c2)CC1 [Compound 9] | 96 |  | 54 | 80 | 4.8
Cn1c(=O)n(C/C=C\CN2CCN(c3cccc(Cl)c3)CC2)c2ccccc21 [Compound 39] | 91 | 9.8 | 72 | 63 | 
O=c1n(C/C=C/CN2CC=C(c3ccccc3)CC2)c2ccccc2n1CC1CCCCC1 [Compound 129] |  |  |  | 13 | 5.5

Source: patent publication US6586435B2, “Benzimidazolone derivatives displaying affinity at the serotonin and dopamine receptors” (Boehringer Ingelheim Pharma KG, priority 2000, dated 2003)
